Results as given in paper PMC4014698 (Pharmaceuticals, 2014).
In brackets after ≈: the same amount, converted by molar mass. Non-standard residues stand in square brackets, D forms with d. Residues, ends and D or L forms follow the SMILES beside them.

Assays:
A. baumannii strain 649 = assay: MIC, microtiter dilution; type: cell-based, Acinetobacter baumannii; details: source blood; Mueller-Hinton medium, 37 °C, 24 h, 5 × 10^5 CFU/mL; three sets of determinations
Text: (§1) All the A. baumannii strains used in this study were (1) obtained from the collection of Dr. Anthony A. Campagnari at the University of Buffalo and originally isolated from different patients and organs/tissues (strain 649, blood; strain 689, groin; strain 759, gluteus; strain 821, urine; strain 884, axilla; strain 899, perineum; strain 964, throat; strain 985, pleural fluid and strain 1012, sputum); (2) were purchased from the American Type Culture Collection (ATCC, Manassas, VA, USA) (strain ATCC 17978, fatal meningitis; and strain ATCC 19606, urine).
(§2) The minimal inhibitory concentration (MIC) is defined as the lowest peptide concentration that inhibited bacterial growth. MICs were measured by a standard microtiter dilution method in Mueller Hinton (MH) medium. Briefly, cells were grown overnight at 37 °C in MH broth and were diluted in the same medium. Serial dilutions of the peptides were added to the microtiter plates in a volume of 50 µL, followed by the addition of 50 µL of bacteria to give a final inoculum of 5 × 10^5 colony-forming units (CFU)/mL. The plates were incubated at 37 °C for 24 h, and the MICs were determined.

[1] = system: A. baumannii strain ATCC 19606; assay: MIC, microtiter dilution; type: cell-based, Acinetobacter baumannii; details: source urine; Mueller-Hinton medium, 37 °C, 24 h, 5 × 10^5 CFU/mL; three sets of determinations
Text: as §1, §2

A. baumannii strain 884 = assay: MIC, microtiter dilution; type: cell-based, Acinetobacter baumannii; details: source axilla; Mueller-Hinton medium, 37 °C, 24 h, 5 × 10^5 CFU/mL; three sets of determinations
Text: as §1, §2

A. baumannii strain 821 = assay: MIC, microtiter dilution; type: cell-based, Acinetobacter baumannii; details: source urine; Mueller-Hinton medium, 37 °C, 24 h, 5 × 10^5 CFU/mL; three sets of determinations
Text: as §1, §2

A. baumannii strain 759 = assay: MIC, microtiter dilution; type: cell-based, Acinetobacter baumannii; details: source gluteus; Mueller-Hinton medium, 37 °C, 24 h, 5 × 10^5 CFU/mL; three sets of determinations
Text: as §1, §2

[2] = system: P. aeruginosa strain PAO1; details: source human wound; Mueller-Hinton medium, 37 °C, 24 h, 5 × 10^5 CFU/mL; three sets of determinations
Text: (§3) P. aeruginosa strains used are as follows: strain PAO1 was isolated from a human wound in 1955 in Australia; strain WR5 was isolated from a burn patient at Walter Reed Army Hospital, Washington, DC, USA, in 1976 and is a natural toxA^− mutant, but is virulent in experimental mouse models; strain PAK was originally isolated at Memorial University, St. John’s, Newfoundland, Canada, and is widely used in the analysis of pili; strain PA14 was originally isolated as a clinical isolate in 1995 at the Massachusetts General Hospital, Boston, MA, USA and is virulent in a variety of plant and animal models of infection; strain M2 was originally isolated in 1975 from the gastrointestinal tract of a healthy CF1 mouse, University of Cincinnati College of Medicine, and Shriners Burns Institute, Cincinnati, OH, USA and is virulent in a burn mouse model of P. aeruginosa infection; and strain CP204 was isolated from a cystic fibrosis patient in 1989 at the National Jewish Medical and Research Center, Denver, CO, USA. All strains have been maintained at −80 °C in the laboratory of Michael Vasil, University of Colorado, School of Medicine.
(§4) The minimal inhibitory concentration (MIC) is defined as the lowest peptide concentration that inhibited bacterial growth. MICs were measured by a standard microtiter dilution method in Mueller Hinton (MH) medium. Briefly, cells were grown overnight at 37 °C in MH broth and were diluted in the same medium. […] The plates were incubated at 37 °C for 24 h, and the MICs were determined.

P. aeruginosa strain WR5 = details: source burn patient; Mueller-Hinton medium, 37 °C, 24 h, 5 × 10^5 CFU/mL; three sets of determinations
Text: as §3, §4

P. aeruginosa strain PAK = details: Mueller-Hinton medium, 37 °C, 24 h, 5 × 10^5 CFU/mL; three sets of determinations
Text: as §3, §4

P. aeruginosa strain M2 = details: source burn mouse model; Mueller-Hinton medium, 37 °C, 24 h, 5 × 10^5 CFU/mL; three sets of determinations
Text: as §3, §4

[3] = system: P. aeruginosa strain PA14; details: Mueller-Hinton medium, 37 °C, 24 h, 5 × 10^5 CFU/mL; three sets of determinations
Text: as §3, §4

[4] = system: P. aeruginosa strain CP204; details: source cystic fibrosis patient; Mueller-Hinton medium, 37 °C, 24 h, 5 × 10^5 CFU/mL; three sets of determinations
Text: as §3, §4

A. baumannii strain 689 = type: cell-based, Acinetobacter baumannii; details: source groin; Mueller-Hinton medium, 37 °C, 24 h, 5 × 10^5 CFU/mL; three sets of determinations
Text: as §1, §2

A. baumannii strain 964 = type: cell-based, Acinetobacter baumannii; details: source throat; Mueller-Hinton medium, 37 °C, 24 h, 5 × 10^5 CFU/mL; three sets of determinations
Text: as §1, §2

A. baumannii strain 985 = type: cell-based, Acinetobacter baumannii; details: source pleural fluid; Mueller-Hinton medium, 37 °C, 24 h, 5 × 10^5 CFU/mL; three sets of determinations
Text: as §1, §2

[5] = system: A. baumannii strain ATCC 17978; type: cell-based, Acinetobacter baumannii; details: ATCC 17978, 24 h
Text: as §1, §2

A. baumannii strain 899 = type: cell-based, Acinetobacter baumannii; details: source perineum; Mueller-Hinton medium, 37 °C, 24 h, 5 × 10^5 CFU/mL; three sets of determinations
Text: as §1, §2

A. baumannii strain 1012 = type: cell-based, Acinetobacter baumannii; details: source sputum; Mueller-Hinton medium, 37 °C, 24 h, 5 × 10^5 CFU/mL; three sets of determinations
Text: as §1, §2

[6] = system: Pseudomonas aeruginosa (6 different isolates); details: geometric mean of the MIC values from 6 different isolates of P. aeruginosa; Table 3B
Text: as §3, §4
Geometric mean of MIC values was calculated to provide an overall view of antimicrobial activity of different analogs.

human erythrocytes = assay: Hemolytic activity (HC50); type: cell-based; details: concentration giving 50% hemolysis after 18 h at 37 °C; 1% human erythrocytes in PBS pH 7.4; hemoglobin release at 570 nm; 100% control water (Figure 7)
Procedure: Hemoglobin release was determined spectrophotometrically at 570 nm.
From these plots, the HC50 values, the peptide concentration that produces 50% hemolysis of human red blood cells after 18 hours in the standard microtiter dilution method was determined.

[7] = system: Acinetobacter baumannii (11 different isolates); type: cell-based; details: geometric mean of the MIC values from 11 different isolates of A. baumannii; Table 3A
Text: as §1, §2
Antibacterial activities against six strains of P. aeruginosa and eleven strains of A. baumannii are compared in Table 3. Geometric mean of MIC values was calculated to provide an overall view of antimicrobial activity of different analogs. It is clear that our peptides were effective in killing the microorganisms tested. Compared to a dramatic reduction in hemolytic activity, antibacterial activity of D-piscidin 1 and D-dermaseptin S4 analogs against eleven strains of A. baumannii maintained the same level (within 2-fold) upon the substitution of “specificity determinant(s)” (Table 3).

Compound | MIC 649 (A. baumannii strain 649) | MIC ATCC19606 [1] | MIC 884 (A. baumannii strain 884) | MIC 821 (A. baumannii strain 821) | MIC 759 (A. baumannii strain 759) | MIC PAO1 [2] | MIC WR5 (P. aeruginosa strain WR5) | MIC PAK (P. aeruginosa strain PAK) | MIC M2 (P. aeruginosa strain M2) | MIC PA14 [3] | MIC CP204 [4] | MIC 689 (A. baumannii strain 689) | MIC 964 (A. baumannii strain 964) | MIC 985 (A. baumannii strain 985) | MIC ATCC17978 [5] | MIC 899 (A. baumannii strain 899) | MIC 1012 (A. baumannii strain 1012) | MIC GM [6] | Hemolytic activity HC50 (human erythrocytes) | MIC GM [7]
CSCC[C@@H](NC(=O)[C@@H](Cc1c[nH]c2ccccc12)NC(=O)[C@@H](CC(C)C)NC(=O)[C@@H](C)N)C(=O)N[C@@H](C(=O)N[C@H](CC(C)C)C(=O)N[C@H](CCCCN)C(=O)N[C@H](CCCCN)C(=O)N[C@H](CCCCN)C(=O)N[C@@H](C(=O)N[C@H](CC(C)C)C(=O)N[C@H](CCCCN)C(=O)N[C@H](C)C(=O)N[C@H](CCCCN)C(=O)N[C@H](C)C(=O)N[C@H](CCCCN)C(=O)N[C@H](C)C(=O)N[C@H](CC(C)C)C(=O)N[C@H](CC(N)=O)C(=O)N[C@H](C)C(=O)N[C@@H](C(=O)N[C@H](CC(C)C)C(=O)N[C@@H](C(=O)NCC(=O)N[C@H](C)C(=O)N[C@H](CC(N)=O)C(=O)N[C@H](C)C(N)=O)C(C)C)C(C)C)C(C)C)[C@H](C)O [D-Dermaseptin S4 L7K,A14K] (H-[dA][dL][dW][dM][dT][dL][dK][dK][dK][dV][dL][dK][dA][dK][dA][dK][dA][dL][dN][dA][dV][dL][dV]G[dA][dN][dA]-NH2) | 0.7 µM (≈ 2 µg/mL) | 0.7 µM (≈ 2 µg/mL) | 1.4 µM (≈ 3.99 µg/mL) | 0.7 µM (≈ 2 µg/mL) | 1.4 µM (≈ 3.99 µg/mL) | 5.5 µM (≈ 15.7 µg/mL) | 11.0 µM (≈ 31.4 µg/mL) | 1.4 µM (≈ 3.99 µg/mL) | 21.9 µM (≈ 62.4 µg/mL) | 5.5 µM (≈ 15.7 µg/mL) | 1.4 µM (≈ 3.99 µg/mL) | 0.7 µM (≈ 2 µg/mL) | 2.7 µM (≈ 7.7 µg/mL) | 0.7 µM (≈ 2 µg/mL) | 0.7 µM (≈ 2 µg/mL) | 1.4 µM (≈ 3.99 µg/mL) | 2.7 µM (≈ 7.7 µg/mL) | 4.9 µM (≈ 14 µg/mL) | 241 µM | 1.1 µM (≈ 3.14 µg/mL)
CC[C@@H](C)[C@@H](NC(=O)CNC(=O)[C@@H](CCCNC(=N)N)NC(=O)[C@@H](Cc1ccccc1)NC(=O)[C@H](NC(=O)[C@@H](Cc1c[nH]cn1)NC(=O)[C@@H](Cc1c[nH]cn1)NC(=O)[C@@H](Cc1ccccc1)NC(=O)[C@H](N)Cc1ccccc1)[C@H](C)CC)C(=O)N[C@@H](C(=O)N[C@H](Cc1c[nH]cn1)C(=O)N[C@@H](C(=O)N[C@H](CCCCN)C(=O)N[C@H](CCCCN)C(=O)N[C@@H](C(=O)N[C@@H](C(=O)N[C@H](Cc1c[nH]cn1)C(=O)N[C@H](CCCNC(=N)N)C(=O)N[C@H](CC(C)C)C(=O)N[C@@H](C(=O)N[C@@H](C(=O)NCC(N)=O)[C@H](C)O)C(C)C)[C@H](C)CC)[C@H](C)O)C(C)C)C(C)C [D-Piscidin 1 G13K] (H-[dF][dF][dH][dH][dI][dF][dR]G[dI][dV][dH][dV][dK][dK][dT][dI][dH][dR][dL][dV][dT]G-NH2) | 3.0 µM (≈ 7.93 µg/mL) | 5.9 µM (≈ 15.6 µg/mL) | 5.9 µM (≈ 15.6 µg/mL) | 5.9 µM (≈ 15.6 µg/mL) | 5.9 µM (≈ 15.6 µg/mL) | 23.7 µM (≈ 62.6 µg/mL) | 23.7 µM (≈ 62.6 µg/mL) | 11.8 µM (≈ 31.2 µg/mL) | 11.8 µM (≈ 31.2 µg/mL) | 23.7 µM (≈ 62.6 µg/mL) | 47.3 µM (≈ 125 µg/mL) | 5.9 µM (≈ 15.6 µg/mL) | 5.9 µM (≈ 15.6 µg/mL) | 3.0 µM (≈ 7.93 µg/mL) | 5.9 µM (≈ 15.6 µg/mL) | 5.9 µM (≈ 15.6 µg/mL) | 5.9 µM (≈ 15.6 µg/mL) | 21.1 µM (≈ 55.8 µg/mL) | 7.0 µM | 5.2 µM (≈ 13.7 µg/mL)
CC[C@@H](C)[C@@H](NC(=O)CNC(=O)[C@@H](CCCNC(=N)N)NC(=O)[C@@H](Cc1ccccc1)NC(=O)[C@H](NC(=O)[C@@H](Cc1c[nH]cn1)NC(=O)[C@@H](Cc1c[nH]cn1)NC(=O)[C@@H](Cc1ccccc1)NC(=O)[C@H](N)Cc1ccccc1)[C@H](C)CC)C(=O)N[C@@H](C(=O)N[C@H](Cc1c[nH]cn1)C(=O)N[C@H](CCCCN)C(=O)NCC(=O)N[C@H](CCCCN)C(=O)N[C@@H](C(=O)N[C@@H](C(=O)N[C@H](Cc1c[nH]cn1)C(=O)N[C@H](CCCNC(=N)N)C(=O)N[C@H](CC(C)C)C(=O)N[C@@H](C(=O)N[C@@H](C(=O)NCC(N)=O)[C@H](C)O)C(C)C)[C@H](C)CC)[C@H](C)O)C(C)C [D-Piscidin 1 V12K] (H-[dF][dF][dH][dH][dI][dF][dR]G[dI][dV][dH][dK]G[dK][dT][dI][dH][dR][dL][dV][dT]G-NH2) | 3.0 µM (≈ 7.8 µg/mL) | 3.0 µM (≈ 7.8 µg/mL) | 3.0 µM (≈ 7.8 µg/mL) | 3.0 µM (≈ 7.8 µg/mL) | 3.0 µM (≈ 7.8 µg/mL) | 24.0 µM (≈ 62.4 µg/mL) | 12.0 µM (≈ 31.2 µg/mL) | 6.0 µM (≈ 15.6 µg/mL) | 24.0 µM (≈ 62.4 µg/mL) | 24.0 µM (≈ 62.4 µg/mL) | 24.0 µM (≈ 62.4 µg/mL) | 3.0 µM (≈ 7.8 µg/mL) | 3.0 µM (≈ 7.8 µg/mL) | 1.5 µM (≈ 3.9 µg/mL) | 3.0 µM (≈ 7.8 µg/mL) | 3.0 µM (≈ 7.8 µg/mL) | 3.0 µM (≈ 7.8 µg/mL) | 17.0 µM (≈ 44.2 µg/mL) | 35 µM | 2.8 µM (≈ 7.28 µg/mL)
